We go through 1 molecule from BindingDB's records for doi:10.1016/s0960-894x(02)00831-4 (Currently Naeja Pharmaceutical, 2002).

This assay has as its target Cathepsin S (Homo sapiens, UniProt P25774). Put plainly: Inhibition of recombinant human cathepsin S.

Chain of Cathepsin S (P25774 whole entry): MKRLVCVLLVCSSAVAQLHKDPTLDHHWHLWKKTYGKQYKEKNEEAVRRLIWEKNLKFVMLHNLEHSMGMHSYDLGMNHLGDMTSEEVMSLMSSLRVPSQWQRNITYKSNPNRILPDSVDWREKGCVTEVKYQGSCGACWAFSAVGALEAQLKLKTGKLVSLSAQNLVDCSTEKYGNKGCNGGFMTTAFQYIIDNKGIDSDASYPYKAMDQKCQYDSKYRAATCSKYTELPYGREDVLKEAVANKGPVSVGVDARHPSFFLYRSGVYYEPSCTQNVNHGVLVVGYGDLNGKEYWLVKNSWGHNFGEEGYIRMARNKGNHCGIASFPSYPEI

A word on the IC50: it is the concentration at which inhibition is half-maximal. On to `O=C(N[C@@H](Cc1ccccc1)C(=O)N[C@@H]1C(=O)N[C@@H]1Oc1ccccc1)OCc1ccccc1` [[(S)-1-((3S,4R)-2-Oxo-4-phenoxy-azetidin-3-ylcarbamoyl)-2-phenyl-ethyl]-carbamic acid benzyl ester], for which the half-inhibitory concentration (IC50) is under 0.1 nM.
